# What was measured:
# Parameters in all cases: scale not given: the % may be the effect or the level left
# [1] = molecular target: MAP/microtubule affinity-regulating kinase 3 (Homo sapiens) (UniProt P27448); assay: Inhibition of MARK3 assessed as enzyme activity at 1 uM relative to untreated control
# [2] = molecular target: Maternal embryonic leucine zipper kinase (Homo sapiens) (UniProt Q14680); assay: Inhibition of MELK assessed as enzyme activity at 1 uM relative to untreated control
# [3] = molecular target: Tyrosine-protein kinase Mer (Homo sapiens) (UniProt Q12866); assay: Inhibition of MERTK assessed as enzyme activity at 1 uM relative to untreated control
# [4] = molecular target: Hepatocyte growth factor receptor (Homo sapiens) (UniProt P08581); assay: Inhibition of MET assessed as enzyme activity at 1 uM relative to untreated control
# [5] = molecular target: Serine/threonine-protein kinase 4 (Homo sapiens) (UniProt Q13043); assay: Inhibition of MST1 assessed as enzyme activity at 1 uM relative to untreated control
# Sequence of Serine/threonine-protein kinase 4 (Homo sapiens) (Q13043 whole entry): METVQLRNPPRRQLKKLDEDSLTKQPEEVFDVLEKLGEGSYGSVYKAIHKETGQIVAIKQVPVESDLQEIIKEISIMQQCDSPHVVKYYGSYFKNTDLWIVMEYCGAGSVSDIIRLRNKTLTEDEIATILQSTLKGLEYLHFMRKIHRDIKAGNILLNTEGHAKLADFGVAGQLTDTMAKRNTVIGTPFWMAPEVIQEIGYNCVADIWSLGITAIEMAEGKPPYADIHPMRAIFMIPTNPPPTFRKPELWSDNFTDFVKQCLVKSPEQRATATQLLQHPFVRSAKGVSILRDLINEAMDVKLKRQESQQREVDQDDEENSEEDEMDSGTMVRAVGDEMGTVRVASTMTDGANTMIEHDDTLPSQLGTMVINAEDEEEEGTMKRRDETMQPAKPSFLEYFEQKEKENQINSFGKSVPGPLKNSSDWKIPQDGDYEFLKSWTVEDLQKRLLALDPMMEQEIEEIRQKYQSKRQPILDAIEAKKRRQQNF
# [6] = molecular target: Macrophage-stimulating protein receptor (Homo sapiens) (UniProt Q04912); assay: Inhibition of MST1R assessed as enzyme activity at 1 uM relative to untreated control
# [7] = molecular target: Serine/threonine-protein kinase 3 (Homo sapiens) (UniProt Q13188); assay: Inhibition of MST2 assessed as enzyme activity at 1 uM relative to untreated control
# Sequence of Serine/threonine-protein kinase 3 (Homo sapiens) (Q13188 whole entry): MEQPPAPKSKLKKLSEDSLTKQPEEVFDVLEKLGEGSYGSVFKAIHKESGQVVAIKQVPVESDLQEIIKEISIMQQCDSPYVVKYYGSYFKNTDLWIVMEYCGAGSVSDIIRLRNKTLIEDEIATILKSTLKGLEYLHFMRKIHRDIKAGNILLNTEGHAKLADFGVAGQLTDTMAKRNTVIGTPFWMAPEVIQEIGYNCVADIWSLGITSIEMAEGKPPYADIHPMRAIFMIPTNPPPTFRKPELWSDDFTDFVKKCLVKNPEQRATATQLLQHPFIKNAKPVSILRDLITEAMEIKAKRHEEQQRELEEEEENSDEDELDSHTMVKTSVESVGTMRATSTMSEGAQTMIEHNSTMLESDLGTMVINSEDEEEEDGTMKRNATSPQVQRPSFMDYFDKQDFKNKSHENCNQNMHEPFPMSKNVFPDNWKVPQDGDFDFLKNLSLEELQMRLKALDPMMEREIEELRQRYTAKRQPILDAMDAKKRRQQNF
# [8] = molecular target: Serine/threonine-protein kinase Nek9 (Homo sapiens) (UniProt Q8TD19); assay: Inhibition of NEK9 assessed as enzyme activity at 1 uM relative to untreated control
# Sequence of Serine/threonine-protein kinase Nek9 (Homo sapiens) (Q8TD19 whole entry): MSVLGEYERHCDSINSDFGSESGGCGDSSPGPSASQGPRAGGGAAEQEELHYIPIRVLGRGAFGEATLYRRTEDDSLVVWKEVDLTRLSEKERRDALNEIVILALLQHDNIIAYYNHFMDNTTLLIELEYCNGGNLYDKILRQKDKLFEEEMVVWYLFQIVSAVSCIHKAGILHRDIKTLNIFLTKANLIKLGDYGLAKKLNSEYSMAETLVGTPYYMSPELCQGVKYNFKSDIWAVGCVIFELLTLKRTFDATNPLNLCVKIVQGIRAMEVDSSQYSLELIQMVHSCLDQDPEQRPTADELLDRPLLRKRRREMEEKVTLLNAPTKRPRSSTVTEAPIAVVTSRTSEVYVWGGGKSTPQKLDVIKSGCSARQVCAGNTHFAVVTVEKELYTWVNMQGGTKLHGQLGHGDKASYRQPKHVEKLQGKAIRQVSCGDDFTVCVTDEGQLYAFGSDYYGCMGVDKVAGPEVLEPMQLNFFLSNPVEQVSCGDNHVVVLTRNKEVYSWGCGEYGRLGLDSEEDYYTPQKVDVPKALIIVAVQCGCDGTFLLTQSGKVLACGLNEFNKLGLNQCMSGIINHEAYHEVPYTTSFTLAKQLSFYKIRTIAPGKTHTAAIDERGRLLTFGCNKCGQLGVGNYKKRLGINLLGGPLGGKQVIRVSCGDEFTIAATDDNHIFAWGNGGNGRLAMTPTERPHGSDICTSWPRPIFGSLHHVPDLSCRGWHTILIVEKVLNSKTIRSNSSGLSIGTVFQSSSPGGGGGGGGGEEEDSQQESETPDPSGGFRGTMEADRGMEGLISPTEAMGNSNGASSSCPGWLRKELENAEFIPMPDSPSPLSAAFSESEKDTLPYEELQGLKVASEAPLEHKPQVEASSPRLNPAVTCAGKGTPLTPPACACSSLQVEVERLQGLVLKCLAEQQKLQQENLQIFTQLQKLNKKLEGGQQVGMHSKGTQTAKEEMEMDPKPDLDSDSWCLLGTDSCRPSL
# [9] = molecular target: Mitogen-activated protein kinase 9 (Homo sapiens) (UniProt P45984); assay: Inhibition of JNK2 assessed as enzyme activity at 1 uM relative to untreated control
# [10] = molecular target: Serine/threonine-protein kinase 10 (Homo sapiens) (UniProt O94804); assay: Inhibition of LOK assessed as enzyme activity at 1 uM relative to untreated control
# [11] = molecular target: Leukocyte tyrosine kinase receptor (Homo sapiens) (UniProt P29376); assay: Inhibition of LTK assessed as enzyme activity at 1 uM relative to untreated control
# [12] = molecular target: Casein kinase I isoform epsilon (Homo sapiens) (UniProt P49674); assay: Inhibition of CSNK1E assessed as enzyme activity at 1 uM relative to untreated control
# Sequence of Casein kinase I isoform epsilon (Homo sapiens) (P49674 whole entry, looked up, canonical isoform): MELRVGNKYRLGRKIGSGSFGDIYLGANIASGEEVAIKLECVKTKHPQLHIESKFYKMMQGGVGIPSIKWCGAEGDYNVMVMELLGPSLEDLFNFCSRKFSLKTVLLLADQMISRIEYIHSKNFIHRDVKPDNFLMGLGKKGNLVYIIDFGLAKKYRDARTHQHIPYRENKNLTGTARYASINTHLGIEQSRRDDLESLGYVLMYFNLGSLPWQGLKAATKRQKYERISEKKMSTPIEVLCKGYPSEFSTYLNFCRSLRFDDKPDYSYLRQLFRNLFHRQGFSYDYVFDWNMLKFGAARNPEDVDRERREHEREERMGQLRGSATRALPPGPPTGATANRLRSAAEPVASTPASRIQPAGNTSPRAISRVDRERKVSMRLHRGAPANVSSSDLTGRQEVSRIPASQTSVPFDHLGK
# [13] = molecular target: Focal adhesion kinase 1 (Homo sapiens) (UniProt Q05397); assay: Inhibition of PTK2 assessed as enzyme activity at 1 uM relative to untreated control
# [14] = molecular target: Protein-tyrosine kinase 2-beta (Homo sapiens) (UniProt Q14289); assay: Inhibition of PTK2B assessed as enzyme activity at 1 uM relative to untreated control
# [15] = molecular target: Serine/threonine-protein kinase RIO3 (Homo sapiens) (UniProt O14730); assay: Inhibition of RIOK3 assessed as enzyme activity at 1 uM relative to untreated control
# [16] = molecular target: Rho-associated protein kinase 2 (Homo sapiens) (UniProt O75116); assay: Inhibition of ROCK2 assessed as enzyme activity at 1 uM relative to untreated control
# Sequence of Rho-associated protein kinase 2 (Homo sapiens) (O75116 whole entry, looked up): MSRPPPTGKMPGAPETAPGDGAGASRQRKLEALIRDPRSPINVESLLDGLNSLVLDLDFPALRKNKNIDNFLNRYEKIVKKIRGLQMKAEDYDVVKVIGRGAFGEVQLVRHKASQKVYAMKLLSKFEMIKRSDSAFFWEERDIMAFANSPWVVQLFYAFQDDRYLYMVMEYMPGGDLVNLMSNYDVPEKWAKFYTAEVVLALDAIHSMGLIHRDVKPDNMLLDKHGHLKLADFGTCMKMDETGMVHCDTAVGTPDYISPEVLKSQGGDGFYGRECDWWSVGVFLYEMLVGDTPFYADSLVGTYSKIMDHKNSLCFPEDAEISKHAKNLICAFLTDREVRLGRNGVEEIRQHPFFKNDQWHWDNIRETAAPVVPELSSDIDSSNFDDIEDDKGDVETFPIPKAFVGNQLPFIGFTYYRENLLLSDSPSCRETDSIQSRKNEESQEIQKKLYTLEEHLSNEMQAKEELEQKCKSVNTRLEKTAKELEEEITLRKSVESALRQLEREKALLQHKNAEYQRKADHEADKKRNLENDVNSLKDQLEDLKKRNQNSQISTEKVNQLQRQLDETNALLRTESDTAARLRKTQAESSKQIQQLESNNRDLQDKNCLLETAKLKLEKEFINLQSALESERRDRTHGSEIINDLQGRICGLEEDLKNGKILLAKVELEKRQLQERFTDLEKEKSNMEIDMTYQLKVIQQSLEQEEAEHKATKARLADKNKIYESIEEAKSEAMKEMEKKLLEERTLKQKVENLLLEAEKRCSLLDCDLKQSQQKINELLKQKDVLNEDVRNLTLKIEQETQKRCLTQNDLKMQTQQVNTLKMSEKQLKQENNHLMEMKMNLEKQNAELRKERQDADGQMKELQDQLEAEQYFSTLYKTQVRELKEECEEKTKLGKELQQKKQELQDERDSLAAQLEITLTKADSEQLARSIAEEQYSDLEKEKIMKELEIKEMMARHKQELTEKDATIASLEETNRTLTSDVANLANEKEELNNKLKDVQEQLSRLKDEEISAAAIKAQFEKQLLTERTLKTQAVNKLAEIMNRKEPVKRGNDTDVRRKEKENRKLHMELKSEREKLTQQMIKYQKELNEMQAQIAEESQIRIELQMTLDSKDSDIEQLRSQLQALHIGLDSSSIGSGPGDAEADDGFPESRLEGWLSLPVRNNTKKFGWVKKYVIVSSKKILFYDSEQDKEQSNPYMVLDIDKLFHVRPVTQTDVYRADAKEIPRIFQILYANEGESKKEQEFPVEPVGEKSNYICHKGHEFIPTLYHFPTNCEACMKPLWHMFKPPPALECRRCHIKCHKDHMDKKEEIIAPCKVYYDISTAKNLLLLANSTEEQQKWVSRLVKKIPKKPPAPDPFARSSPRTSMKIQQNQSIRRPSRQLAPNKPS
# [17] = molecular target: SRSF protein kinase 1 (Homo sapiens) (UniProt Q96SB4); assay: Inhibition of SRPK1 assessed as enzyme activity at 1 uM relative to untreated control
# [18] = molecular target: Ephrin type-B receptor 1 (Homo sapiens) (UniProt P54762); assay: Inhibition of EPHB1 assessed as enzyme activity at 1 uM relative to untreated control
# [19] = molecular target: Mitogen-activated protein kinase 7 (Homo sapiens) (UniProt Q13164); assay: Inhibition of ERK5 assessed as enzyme activity at 1 uM relative to untreated control
# Sequence of Mitogen-activated protein kinase 7 (Homo sapiens) (Q13164 2-816 limits assumed): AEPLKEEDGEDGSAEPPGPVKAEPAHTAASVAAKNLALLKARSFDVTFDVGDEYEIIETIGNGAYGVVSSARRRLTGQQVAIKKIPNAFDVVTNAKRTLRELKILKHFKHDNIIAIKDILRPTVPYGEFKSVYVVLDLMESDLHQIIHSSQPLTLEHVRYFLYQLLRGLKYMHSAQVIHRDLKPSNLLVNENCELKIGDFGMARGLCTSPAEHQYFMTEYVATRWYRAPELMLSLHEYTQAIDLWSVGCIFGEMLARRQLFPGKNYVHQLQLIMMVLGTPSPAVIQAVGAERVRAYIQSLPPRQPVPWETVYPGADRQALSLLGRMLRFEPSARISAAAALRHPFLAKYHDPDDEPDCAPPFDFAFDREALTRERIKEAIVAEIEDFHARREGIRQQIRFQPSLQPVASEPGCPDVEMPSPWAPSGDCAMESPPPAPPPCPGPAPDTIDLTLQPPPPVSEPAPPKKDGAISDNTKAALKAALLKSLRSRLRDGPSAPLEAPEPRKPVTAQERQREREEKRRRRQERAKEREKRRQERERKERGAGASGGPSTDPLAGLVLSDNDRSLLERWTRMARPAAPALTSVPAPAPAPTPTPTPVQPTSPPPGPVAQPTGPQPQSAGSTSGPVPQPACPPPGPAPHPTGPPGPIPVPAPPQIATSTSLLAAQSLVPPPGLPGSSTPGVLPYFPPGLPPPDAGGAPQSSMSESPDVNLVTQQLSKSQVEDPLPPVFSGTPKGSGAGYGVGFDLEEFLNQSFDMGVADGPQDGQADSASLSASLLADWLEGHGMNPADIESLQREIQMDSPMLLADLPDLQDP
# [20] = molecular target: Mitogen-activated protein kinase 15 (Homo sapiens) (UniProt Q8TD08); assay: Inhibition of ERK8 assessed as enzyme activity at 1 uM relative to untreated control
# [21] = molecular target: Fibroblast growth factor receptor 1 (Homo sapiens) (UniProt P11362); assay: Inhibition of FGFR1 assessed as enzyme activity at 1 uM relative to untreated control
# [22] = molecular target: Fibroblast growth factor receptor 3 (Homo sapiens) (UniProt P22607); assay: Inhibition of FGFR3 assessed as enzyme activity at 1 uM relative to untreated control
# [23] = molecular target: Receptor-type tyrosine-protein kinase FLT3 (Homo sapiens) (UniProt P36888); assay: Inhibition of FLT3 assessed as enzyme activity at 1 uM relative to untreated control
# [24] = molecular target: Tyrosine-protein kinase JAK1 (Homo sapiens) (UniProt P23458); assay: Inhibition of JAK1 kinase domain 1 assessed as enzyme activity at 1 uM relative to untreated control
# [25] = molecular target: Death-associated protein kinase 1 (Homo sapiens) (UniProt P53355); assay: Inhibition of DAPK1 assessed as enzyme activity at 1 uM relative to untreated control
# [26] = molecular target: Death-associated protein kinase 3 (Homo sapiens) (UniProt O43293); assay: Inhibition of DAPK3 assessed as enzyme activity at 1 uM relative to untreated control
# [27] = molecular target: Ephrin type-A receptor 4 (Homo sapiens) (UniProt P54764); assay: Inhibition of EPHA4 assessed as enzyme activity at 1 uM relative to untreated control
# [28] = tested on: Tyrosine-protein kinase ABL1 (Homo sapiens), P00519 [E255K]; assay: Inhibition of ABL1 E255K mutant assessed as enzyme activity at 1 uM relative to untreated control
# [29] = tested on: Tyrosine-protein kinase ABL1 (Homo sapiens), P00519 [F317L]; assay: Inhibition of ABL1 F317L mutant assessed as enzyme activity at 1 uM relative to untreated control
# [30] = molecular target: Activin receptor type-1 (Homo sapiens) (UniProt Q04771); assay: Inhibition of ACVR1 assessed as enzyme activity at 1 uM relative to untreated control
# [31] = molecular target: 3-phosphoinositide-dependent protein kinase 1 (Homo sapiens) (UniProt O15530); assay: Inhibition of PDPK1 assessed as enzyme activity at 1 uM relative to untreated control
# [32] = molecular target: Cyclin-dependent kinase 15 (Homo sapiens) (UniProt Q96Q40); assay: Inhibition of PFTAIRE2 assessed as enzyme activity at 1 uM relative to untreated control
# Sequence of Cyclin-dependent kinase 15 (Homo sapiens) (Q96Q40 whole entry): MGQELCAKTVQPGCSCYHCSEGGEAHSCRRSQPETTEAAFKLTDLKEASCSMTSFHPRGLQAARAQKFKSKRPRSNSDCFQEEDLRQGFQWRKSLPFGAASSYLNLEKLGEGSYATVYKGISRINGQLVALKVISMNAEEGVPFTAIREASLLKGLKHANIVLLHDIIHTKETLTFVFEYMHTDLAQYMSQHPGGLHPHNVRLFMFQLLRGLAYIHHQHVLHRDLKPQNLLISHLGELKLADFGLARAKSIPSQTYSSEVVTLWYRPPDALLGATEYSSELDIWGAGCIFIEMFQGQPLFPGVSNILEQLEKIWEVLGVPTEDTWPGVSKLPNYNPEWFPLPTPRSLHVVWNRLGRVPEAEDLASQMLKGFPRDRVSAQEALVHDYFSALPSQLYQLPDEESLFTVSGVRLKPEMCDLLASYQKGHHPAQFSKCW
# [33] = molecular target: Serine/threonine-protein kinase N2 (Homo sapiens) (UniProt Q16513); assay: Inhibition of PKN2 assessed as enzyme activity at 1 uM relative to untreated control
# [34] = molecular target: Serine/threonine-protein kinase D2 (Homo sapiens) (UniProt Q9BZL6); assay: Inhibition of PRKD2 assessed as enzyme activity at 1 uM relative to untreated control
# [35] = molecular target: Serine/threonine-protein kinase 36 (Homo sapiens) (UniProt Q9NRP7); assay: Inhibition of STK36 assessed as enzyme activity at 1 uM relative to untreated control
# [36] = molecular target: Tyrosine-protein kinase receptor Tie-1 (Homo sapiens) (UniProt P35590); assay: Inhibition of TIE1 assessed as enzyme activity at 1 uM relative to untreated control
# [37] = molecular target: Tyrosine-protein kinase receptor TYRO3 (Homo sapiens) (UniProt Q06418); assay: Inhibition of TYRO3 assessed as enzyme activity at 1 uM relative to untreated control
# [38] = molecular target: Wee1-like protein kinase 2 (Homo sapiens) (UniProt P0C1S8); assay: Inhibition of WEE2 assessed as enzyme activity at 1 uM relative to untreated control
smiles,measurement,setting,value
Cc1ccc2c(Nc3ccc(Cl)cc3)nccc2c1Nc1ncccc1-c1ncnc2[nH]cnc12.Cl.Cl.Cl,Activity,[1],100%
same,Activity,[2],100%
same,Activity,[3],99%
same,Activity,[4],73%
same,Activity,[5],88%
same,Activity,[6],97%
same,Activity,[7],100%
same,Activity,[8],89%
same,Activity,[9],86%
same,Activity,[10],0%
same,Activity,[11],20%
same,Activity,[12],99%
same,Activity,[13],93%
same,Activity,[14],40%
same,Activity,[15],77%
same,Activity,[16],100%
same,Activity,[17],100%
same,Activity,[18],2%
same,Activity,[19],95%
same,Activity,[20],98%
same,Activity,[21],80%
same,Activity,[22],100%
same,Activity,[23],62%
same,Activity,[24],98%
same,Activity,[25],90%
same,Activity,[26],100%
same,Activity,[27],22%
same,Activity,[28],80%
same,Activity,[29],79%
same,Activity,[30],100%
same,Activity,[31],100%
same,Activity,[32],80%
same,Activity,[33],86%
same,Activity,[34],100%
same,Activity,[35],92%
same,Activity,[36],4.9%
same,Activity,[37],84%
same,Activity,[38],97%
